Assay results from PubChem BioAssay (NCI).
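Cells were grown in 96-well plates and exposed to each compound for 48 hours at five concentrations; endpoints were interpolated linearly between bracketing concentrations, or set to the highest concentration if not reached. GI50 marks 50% less growth. TGI marks complete inhibition of growth.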

Assays:
Assay in all cases: NCI anticancer screen, dose series, 48 h; in the data active = GI50 below about 0.43 µM; inactive = the rest
786-0 renal = test system: 786-0 renal
A498 renal = test system: A498 renal
A549 NSCLC = test system: A549 NSCLC
ACHN renal = test system: ACHN renal
BT-549 breast = test system: BT-549 breast
CAKI-1 renal = test system: CAKI-1 renal
CCRF-CEM leukemia = test system: CCRF-CEM leukemia
COLO 205 colon = test system: COLO 205 colon
DU-145 prostate = test system: DU-145 prostate
EKVX NSCLC = test system: EKVX NSCLC
HCC-2998 colon = test system: HCC-2998 colon
HCT-116 colon = test system: HCT-116 colon
HCT-15 colon = test system: HCT-15 colon
HL-60(TB) leukemia = test system: HL-60(TB) leukemia
HOP-62 NSCLC = test system: HOP-62 NSCLC
HOP-92 NSCLC = test system: HOP-92 NSCLC
HS 578T breast = test system: HS 578T breast
HT29 colon = test system: HT29 colon
IGROV1 ovarian = test system: IGROV1 ovarian
K-562 leukemia = test system: K-562 leukemia
KM12 colon = test system: KM12 colon
LOX IMVI melanoma = test system: LOX IMVI melanoma
M14 melanoma = test system: M14 melanoma
MALME-3M melanoma = test system: MALME-3M melanoma
MCF7 breast = test system: MCF7 breast
MDA-MB-231 breast = test system: MDA-MB-231 breast
MDA-MB-435 = test system: MDA-MB-435
MDA-MB-468 breast = test system: MDA-MB-468 breast
MOLT-4 leukemia = test system: MOLT-4 leukemia
NCI-H226 lung = test system: NCI-H226 lung
NCI-H23 lung = test system: NCI-H23 lung
NCI-H460 lung = test system: NCI-H460 lung
NCI-H522 lung = test system: NCI-H522 lung
NCI/ADR-RES ovarian = test system: NCI/ADR-RES ovarian
OVCAR-3 ovarian = test system: OVCAR-3 ovarian
OVCAR-4 ovarian = test system: OVCAR-4 ovarian
OVCAR-5 ovarian = test system: OVCAR-5 ovarian
OVCAR-8 ovarian = test system: OVCAR-8 ovarian
PC-3 prostate = test system: PC-3 prostate
RPMI-8226 leukemia = test system: RPMI-8226 leukemia
RXF 393 renal = test system: RXF 393 renal
SF-268 CNS = test system: SF-268 CNS
SF-295 CNS = test system: SF-295 CNS
SF-539 CNS = test system: SF-539 CNS
SK-MEL-2 melanoma = test system: SK-MEL-2 melanoma
SK-MEL-28 melanoma = test system: SK-MEL-28 melanoma
SK-MEL-5 melanoma = test system: SK-MEL-5 melanoma
SK-OV-3 ovarian = test system: SK-OV-3 ovarian
SN12C renal = test system: SN12C renal
SNB-19 CNS = test system: SNB-19 CNS
SNB-75 CNS = test system: SNB-75 CNS
SR leukemia = test system: SR leukemia
SW-620 colon = test system: SW-620 colon
T-47D breast = test system: T-47D breast
TK-10 renal = test system: TK-10 renal
U251 CNS = test system: U251 CNS
UACC-257 melanoma = test system: UACC-257 melanoma
UACC-62 melanoma = test system: UACC-62 melanoma
UO-31 renal = test system: UO-31 renal

CCOc1ccccc1[C@H]1C(C(=O)c2ccc(Cl)cc2)C2(N[C@@H]1c1ccccc1)C(=O)Nc1ccccc12 (stereo partly drawn)
17.5 µM: TGI (SK-MEL-2 melanoma)
29.8 µM: TGI (HCC-2998 colon)
21.5 µM: TGI (NCI-H460 lung)
20.7 µM: TGI (A498 renal)
12.2 µM: TGI (SK-MEL-5 melanoma)
> 39.8 µM: TGI (786-0 renal) | TGI (A549 NSCLC) | TGI (ACHN renal) | TGI (CAKI-1 renal) | TGI (CCRF-CEM leukemia) | TGI (DU-145 prostate) | TGI (EKVX NSCLC) | TGI (HCT-116 colon) | TGI (HCT-15 colon) | TGI (HOP-62 NSCLC) | TGI (IGROV1 ovarian) | TGI (K-562 leukemia) | TGI (KM12 colon) | TGI (M14 melanoma) | TGI (MCF7 breast) | TGI (MOLT-4 leukemia) | TGI (NCI-H23 lung) | TGI (OVCAR-3 ovarian) | TGI (OVCAR-4 ovarian) | TGI (OVCAR-5 ovarian) | TGI (OVCAR-8 ovarian) | TGI (PC-3 prostate) | TGI (RPMI-8226 leukemia) | TGI (SF-268 CNS) | TGI (SF-295 CNS) | TGI (SF-539 CNS) | TGI (SK-MEL-28 melanoma) | TGI (SK-OV-3 ovarian) | TGI (SNB-19 CNS) | TGI (SNB-75 CNS) | TGI (SR leukemia) | TGI (SW-620 colon) | TGI (T-47D breast) | TGI (TK-10 renal) | TGI (U251 CNS) | TGI (UACC-257 melanoma) | TGI (UO-31 renal)
18.6 µM: TGI (MALME-3M melanoma)
36.1 µM: TGI (HT29 colon)
16.3 µM: TGI (MDA-MB-435)
18.5 µM: TGI (NCI-H226 lung)
34.3 µM: TGI (MDA-MB-231 breast)
10.3 µM: TGI (LOX IMVI melanoma)
8.19 µM: TGI (MDA-MB-468 breast)
18.2 µM: TGI (UACC-62 melanoma)
14 µM: TGI (COLO 205 colon)
22.9 µM: TGI (HS 578T breast)
inactive: GI50 (786-0 renal) 8.94 µM | GI50 (A498 renal) 7.7 µM | GI50 (A549 NSCLC) 10.4 µM | GI50 (ACHN renal) 10.1 µM | GI50 (BT-549 breast) 6.89 µM | GI50 (CAKI-1 renal) 4.08 µM | GI50 (CCRF-CEM leukemia) 29.2 µM | GI50 (COLO 205 colon) 6.82 µM | GI50 (DU-145 prostate) 13.1 µM | GI50 (EKVX NSCLC) 8.62 µM | GI50 (HCC-2998 colon) 7.9 µM | GI50 (HCT-116 colon) 6.75 µM | GI50 (HCT-15 colon) 8.87 µM | GI50 (HL-60(TB) leukemia) 5.6 µM | GI50 (HOP-62 NSCLC) 18.9 µM | GI50 (HOP-92 NSCLC) 6.65 µM | GI50 (HS 578T breast) 6.08 µM | GI50 (HT29 colon) 7.26 µM | GI50 (IGROV1 ovarian) 8.69 µM | GI50 (K-562 leukemia) 9.06 µM | GI50 (KM12 colon) 11.3 µM | GI50 (LOX IMVI melanoma) 2.85 µM | GI50 (M14 melanoma) 7.69 µM | GI50 (MALME-3M melanoma) 7.4 µM | GI50 (MCF7 breast) 6.78 µM | GI50 (MDA-MB-231 breast) 5.37 µM | GI50 (MDA-MB-435) 4.06 µM | GI50 (MDA-MB-468 breast) 1.31 µM | GI50 (MOLT-4 leukemia) 4.68 µM | GI50 (NCI-H226 lung) 5.44 µM | GI50 (NCI-H23 lung) 7.78 µM | GI50 (NCI-H460 lung) 8 µM | GI50 (NCI-H522 lung) 6.14 µM | GI50 (NCI/ADR-RES ovarian) 5.64 µM | GI50 (OVCAR-3 ovarian) 7.68 µM | GI50 (OVCAR-4 ovarian) 14.8 µM | GI50 (OVCAR-5 ovarian) 10.1 µM | GI50 (OVCAR-8 ovarian) 11.9 µM | GI50 (PC-3 prostate) 2.77 µM | GI50 (RPMI-8226 leukemia) 8.82 µM | GI50 (RXF 393 renal) 5.35 µM | GI50 (SF-268 CNS) 12.2 µM | GI50 (SF-295 CNS) 7.88 µM | GI50 (SF-539 CNS) 23.3 µM | GI50 (SK-MEL-2 melanoma) 7.37 µM | GI50 (SK-MEL-28 melanoma) 17.4 µM | GI50 (SK-MEL-5 melanoma) 6.1 µM | GI50 (SK-OV-3 ovarian) 22.1 µM | GI50 (SN12C renal) 5.56 µM | GI50 (SNB-19 CNS) 16.6 µM | GI50 (SNB-75 CNS) 6.24 µM | GI50 (SR leukemia) 9.21 µM | GI50 (SW-620 colon) 10.1 µM | GI50 (T-47D breast) 6.48 µM | GI50 (TK-10 renal) 15.6 µM | GI50 (U251 CNS) 13 µM | GI50 (UACC-257 melanoma) 8.91 µM | GI50 (UACC-62 melanoma) 4.65 µM | GI50 (UO-31 renal) 5.82 µM
22.8 µM: TGI (BT-549 breast) | TGI (NCI-H522 lung)
29.3 µM: TGI (HOP-92 NSCLC)
16.6 µM: TGI (NCI/ADR-RES ovarian)
19.2 µM: TGI (RXF 393 renal)
32.4 µM: TGI (HL-60(TB) leukemia)
11.9 µM: TGI (SN12C renal)
